In patent US7381572B2, “Reagents and procedures for multi-label high-specificity labeling” (Rutgers, The State University of New Jersey, priority 2004, dated 2008):
Read-outs that look alike come from different tables or passages of the source. Each block holds one compound with its values, some of them ahead of it. No end group written: not given here.

Key:
[1] = Multicolor, multisite labeling, pairs of peptides: FlAsH detection; type: binding; details: pair of G1^0 with the named peptide; both probes present; 5, 10, 20 mM DTT
Protocol: (§1) Multicolor, multisite labeling was assessed in electrophoretic-mobility-shift assays. Pairs of tetracysteine-tagged peptides—one neutral tetracysteine-tagged peptide, and one negatively-charged tetracysteine-tagged peptide (the charge difference resulting in different electrophoretic mobilities on the gel, thus allowing the two tetracysteine-tagged peptides to be distinguished)—were analyzed. For each combination of probe and pair of tetracysteine-tagged peptides, three reactions were performed in parallel: one reaction at 5 mM DTT, one reaction at 10 mM DTT, and one reaction at 20 mM DTT. […] DTT (1 μl of 50 mM DTT for reactions at 5 mM DTT, 1 μl of 100 mM DTT for reactions at 10 mM DTT, and 1 μl of 200 mM DTT for reactions at 20 mM DTT) was added, and samples were incubated 30 min at 25° C.

[2] = Multicolor, multisite labeling, pairs of peptides: Cy5 detection; type: binding; details: pair of G1^0 with P3, P4, P5 or P6; both probes present; 5, 10, 20 mM DTT
Protocol: as §1

[3] = Tag-conjugate interaction found by the inventors: Cy5 derivatives; type: binding
[4] = Tag-conjugate interaction found by the inventors: FlAsH-EDT2; type: binding
[5] = Multicolor, multisite labeling of doubly-tetracysteine-tagged proteins (SARPs), crude lysate; type: binding, Escherichia coli; details: for FlAsH-Cy5 FRET within the resulting complex (SARP detection): excitation 488 nm, emission ≧680 nm; for co-labeling by FlAsH and Cy5-(SO3)2-(PAEDT)2: ~1 μM doubly-tagged protein
Protocol: Multicolor, multisite labeling of doubly-tetracysteine-tagged proteins—yielding self-assembled relay probes, SARPs—was assessed in electrophoretic-mobility-shift assays. DTT (1 μl of 125 mM solution) was added to 23 μl crude lysate containing doubly-tetracysteine-tagged protein (˜1 μM; Example 14.2), and samples were incubated 30 min at 25° C. Cy5-(SO3)2-(PAEDT)2 (Example 9.2; 0.5 μl of 1 mM solution in DMF) was added, and samples were incubated 20 min at 25° C. FlAsH (Griffin, et al. (2000) Methods Enzmol. 327, 565-578; 0.5 μl of 0.1 mM solution in DMF) was then added, and samples were further incubated 5 min at 25° C.

tetracysteine peptide = details: initially non-fluorescent; Griffin, et al. Science (1998); cited from earlier work
[6] = Tag-conjugate binding found by the inventors: Cy3 and Cy5 bis-propionamido-phenylarsine derivatives
[7] = type: binding; details: excitation 488 nm, emission ≧680 nm
[8] = Tag-conjugate interaction found by the inventors: Cy3 derivatives; type: binding

Compound: Ac-EWNCCPPPCCN—CONH2 (Ac-EWNCCPPPCCN-NH2; cysteine pairing not given here) [P3]
FlAsH labeling as % of the level of labeling of G1^0 [1]: < 10% | labeling by Cy5-(SO3)2-(PAEDT)2 in a pair of peptides [2]: labeled

Compound: CGPCCGPC [Ac—WNCGPCCGPCN—CONH2]
binding of tag to Cy5 bis-sulfonato bis-propionamido-phenylarsine or Cy5 bis-propionamido-phenylarsine [3]: bind | interaction of tag with FlAsH-EDT2 [4]: do not interact substantially

Compound: α-CCPPPCC—PPPPPPPPP—CCGCCN [α-SARP-P3/G1-PP9]
specificity of co-labeling and FRET-dependent detection (other proteins labeled) [5]: no other protein in the crude lysate was detectably labeled | FlAsH-Cy5 FRET within the resulting complex (SARP detection) [5]: participated in FlAsH-Cy5 FRET | co-labeling by FlAsH and Cy5-(SO3)2-(PAEDT)2 [5]: co-labeled

Compound: Ac-EWNCCPPPPCCN—CONH2 (Ac-EWNCCPPPPCCN-NH2; cysteine pairing not given here) [P4]
FlAsH labeling as % of the level of labeling of G1^0 [1]: < 10% | labeling by Cy5-(SO3)2-(PAEDT)2 in a pair of peptides [2]: labeled

Compound: O=C(O)c1ccccc1-c1c2ccc(=O)c([As]3SCCS3)c-2oc2c([As]3SCCS3)c(O)ccc12 [FlAsH-EDT2, 4′,5′-bis (1,3,2-dithioarsolan-2-yl)fluorescein]
fluorescence on addition of a tetracysteine peptide to displace the EDT (tetracysteine peptide): develops bright fluorescence

Compound: CCPPPPCC (target sequence) [tetracysteine peptide tag of the form CC(P)nCC]
binding of tag to Cy3 and Cy5 (bis-sulfonato) bis-propionamido-phenylarsine derivatives [6]: bind | interaction of tag with FlAsH-EDT2 [4]: not interact substantially

Compound: Ac-EWNCCPPPPPCCN—CONH2 (Ac-EWNCCPPPPPCCN-NH2; cysteine pairing not given here) [P5]
FlAsH labeling as % of the level of labeling of G1^0 [1]: < 10% | labeling by Cy5-(SO3)2-(PAEDT)2 in a pair of peptides [2]: labeled

Compound: CCPPPPPCC (target sequence) [tetracysteine peptide tag of the form CC(P)nCC]
binding of tag to Cy3 and Cy5 (bis-sulfonato) bis-propionamido-phenylarsine derivatives [6]: bind | interaction of tag with FlAsH-EDT2 [4]: not interact substantially

Compound: CCPGPCC
binding of tag to Cy3 and Cy5 (bis-sulfonato) bis-propionamido-phenylarsine derivatives [6]: bind | interaction of tag with FlAsH-EDT2 [4]: not interact substantially

binding of tag to Cy5 bis-sulfonato bis-propionamido-phenylarsine or Cy5 bis-propionamido-phenylarsine [3]: bind
Compound: CGCGCGC (not fully specified (N-terminus, C-terminus); cysteine pairing not given here) [Ac—WNCGCGCGCN—CONH2, tag CGCGCGC; tested as the set A peptide that holds it]
interaction of tag with FlAsH-EDT2 [4]: do not interact substantially

Compound: Ac-EWNCCPPPPCCN-AEAAAKEAAAKEAAAKEAAAKA-NCCGCCN—CONH2 [SARP-P4/G1-HL4X]
FlAsH-Cy5 FRET within the resulting complex (SARP detection) [7]: participated in FlAsH-Cy5 FRET

Compound: CCPPPCC (target sequence) [tetracysteine peptide tag of the form CC(P)nCC]
binding of tag to Cy3 and Cy5 (bis-sulfonato) bis-propionamido-phenylarsine derivatives [6]: bind | interaction of tag with FlAsH-EDT2 [4]: not interact substantially

Compound: Ac-EWNCCPPPPPPCCN—CONH2 (Ac-EWNCCPPPPPPCCN-NH2; cysteine pairing not given here) [P6]
FlAsH labeling as % of the level of labeling of G1^0 [1]: < 10% | labeling by Cy5-(SO3)2-(PAEDT)2 in a pair of peptides [2]: labeled

Compound: CCGPCC: tetracysteine peptide tag of the general form CCXXCC (target sequence)
interaction of tag with Cy3 derivatives of conjugates according to Formula (I) [8]: interact tightly | interaction of tag with Cy5 derivatives of conjugates according to Formula (I) [3]: not interact, or interact less tightly

Compound: α-CCPPPPCC—PPPPPPPPP—CCGCCN [α-SARP-P4/G1-PP9]
specificity of co-labeling and FRET-dependent detection (other proteins labeled) [5]: no other protein in the crude lysate was detectably labeled | FlAsH-Cy5 FRET within the resulting complex (SARP detection) [5]: participated in FlAsH-Cy5 FRET | co-labeling by FlAsH and Cy5-(SO3)2-(PAEDT)2 [5]: co-labeled

Compound: CCPPPPPPCC (target sequence) [tetracysteine peptide tag of the form CC(P)nCC]
binding of tag to Cy3 and Cy5 (bis-sulfonato) bis-propionamido-phenylarsine derivatives [6]: bind | interaction of tag with FlAsH-EDT2 [4]: not interact substantially

Compound: Ac-EWNCCPPPPCCN—PPPPPPPPPPPP—NCCGCCN—CONH2 [SARP-P4/G1-PP12]
FlAsH-Cy5 FRET within the resulting complex (SARP detection) [7]: participated in FlAsH-Cy5 FRET

Compound: Ac-EWNCCPPPPCCN—PPPPPPPPP—NCCGCCN—CONH2 [SARP-P4/G1-PP9]
FlAsH-Cy5 FRET within the resulting complex (SARP detection) [7]: participated in FlAsH-Cy5 FRET
